Reference: US9938299B2, “Glycosidase inhibitors and uses thereof” (MERCK SHARP & DOHME CORP., priority 2012, dated 2018)
Read-outs that look alike come from different tables or passages of the source.

Experiments:
hPgp = target: T1, hPgp (Homo sapiens, UniProt P08183); assay: hPgp efflux ratio (Papp B→A/A→B ratio); format: in vitro ADME; details: LLC-PK1
T1 construct: expressed in transfected cells; host or cells: LLC-PK1 cells
Procedure: (§1) Bi-directional transport was evaluated in LLC-PK1 cells in order to determine apparent permeability (Papp). LLC-PK1 cells can form a tight monolayer and therefore can be used to assess vectorial transport of compounds from basolateral to apical (B→A) and from apical to basolateral (A→B).
(§2) To determine Papp LLC-PK1 cells were cultured in 96-well transwell culture plates (Millipore). Solutions containing the test compounds (1 μM) were prepared in Hank's Balanced Salt Solution with 10 mM HEPES. Substrate solution (150 μL) was added to either the apical (A) or the basolateral (B) compartment of the culture plate, and buffer (150 μL) was added to the compartment opposite to that containing the compound. At t=3 h, 50 μL samples were removed from both sides of monolayers dosed with test compound and placed in 96 well plates, scintillant (200 μL) or internal standard (100 μL labetolol 1 μM) was added to the samples and concentration was determined by liquid scintillation counting in a MicroBeta Wallac Trilux scintillation counter (Perkin Elmer Life Sciences, Boston, Mass.) or by LCMS/MS (Applied Biosystems SCIEX API 5000 triple quadruple mass spectrometer). [^3H]Verapamil (1 μM) was used as the positive control. The experiment was performed in triplicate.

human O-GlcNAcase = target: T2, human O-GlcNAcase (Homo sapiens, UniProt O60502); assay: Determination of KI values for inhibition of O-GlcNAcase activity (fluorogenic 4-methylumbelliferyl GlcNAc substrate); format: biochemical
T2 sequence (O60502 1-916): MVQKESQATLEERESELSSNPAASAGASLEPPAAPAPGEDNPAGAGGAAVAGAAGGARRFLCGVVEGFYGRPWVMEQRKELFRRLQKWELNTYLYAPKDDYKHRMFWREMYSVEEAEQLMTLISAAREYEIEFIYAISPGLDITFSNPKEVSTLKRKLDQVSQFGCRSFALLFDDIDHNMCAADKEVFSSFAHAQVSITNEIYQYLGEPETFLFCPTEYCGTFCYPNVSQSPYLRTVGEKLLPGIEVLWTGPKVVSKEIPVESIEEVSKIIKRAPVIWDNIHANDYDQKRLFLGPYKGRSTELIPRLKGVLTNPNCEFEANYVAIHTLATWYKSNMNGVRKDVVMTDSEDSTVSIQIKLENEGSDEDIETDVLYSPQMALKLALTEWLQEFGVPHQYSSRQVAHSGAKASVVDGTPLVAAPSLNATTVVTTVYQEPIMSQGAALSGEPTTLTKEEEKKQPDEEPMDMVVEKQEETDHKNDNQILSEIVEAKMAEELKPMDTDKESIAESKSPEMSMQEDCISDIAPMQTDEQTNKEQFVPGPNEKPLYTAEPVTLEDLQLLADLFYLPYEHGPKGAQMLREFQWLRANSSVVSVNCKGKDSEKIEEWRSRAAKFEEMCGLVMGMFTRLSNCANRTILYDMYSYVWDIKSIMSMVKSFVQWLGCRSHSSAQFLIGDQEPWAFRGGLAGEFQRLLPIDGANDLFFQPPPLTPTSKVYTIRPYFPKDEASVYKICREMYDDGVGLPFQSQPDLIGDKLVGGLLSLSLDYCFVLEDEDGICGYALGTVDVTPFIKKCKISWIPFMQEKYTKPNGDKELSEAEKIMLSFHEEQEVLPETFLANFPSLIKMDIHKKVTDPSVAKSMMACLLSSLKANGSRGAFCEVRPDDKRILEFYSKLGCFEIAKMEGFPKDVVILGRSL
Procedure: Assay for Determination of […] for Inhibition of O-GlcNAcase Activity
Experimental procedure for kinetic analyses: Enzymatic reactions were carried out in a reaction containing 50 mM NaH2PO4, 100 mM NaCl and 0.1% BSA (pH 7.0) using 2 mM 4-Methylumbelliferyl N-acetyl-β-D-glucosaminide dihydrate (Sigma M2133) dissolved in ddH2O, as a substrate. The amount of purified human O-GlcNAcase enzyme used in the reaction was 0.7 nM. Test compound of varying concentrations was added to the enzyme prior to initiation of the reaction. The reaction was performed at room temperature in a 96-well plate and was initiated with the addition of substrate. […] The slope of product production was determined for each concentration of compound tested and plotted, using standard curve fitting algorithms for sigmoidal dose response curves. The values for a four parameter logistic curve fit of the data were determined.

[1] = Determination of apparent permeability (Papp), bi-directional transport in LLC-PK1 cells; format: in vitro ADME; details: pig, t=3 h, average of A to B and B to A
Procedure: as §1, §2

[2] = purified human O-GlcNAcase 0.7 nM, 2 mM substrate, pH 7.0, room temperature, Cheng-Prusoff, read-out: Ki

T1 sequence (P08183 whole entry): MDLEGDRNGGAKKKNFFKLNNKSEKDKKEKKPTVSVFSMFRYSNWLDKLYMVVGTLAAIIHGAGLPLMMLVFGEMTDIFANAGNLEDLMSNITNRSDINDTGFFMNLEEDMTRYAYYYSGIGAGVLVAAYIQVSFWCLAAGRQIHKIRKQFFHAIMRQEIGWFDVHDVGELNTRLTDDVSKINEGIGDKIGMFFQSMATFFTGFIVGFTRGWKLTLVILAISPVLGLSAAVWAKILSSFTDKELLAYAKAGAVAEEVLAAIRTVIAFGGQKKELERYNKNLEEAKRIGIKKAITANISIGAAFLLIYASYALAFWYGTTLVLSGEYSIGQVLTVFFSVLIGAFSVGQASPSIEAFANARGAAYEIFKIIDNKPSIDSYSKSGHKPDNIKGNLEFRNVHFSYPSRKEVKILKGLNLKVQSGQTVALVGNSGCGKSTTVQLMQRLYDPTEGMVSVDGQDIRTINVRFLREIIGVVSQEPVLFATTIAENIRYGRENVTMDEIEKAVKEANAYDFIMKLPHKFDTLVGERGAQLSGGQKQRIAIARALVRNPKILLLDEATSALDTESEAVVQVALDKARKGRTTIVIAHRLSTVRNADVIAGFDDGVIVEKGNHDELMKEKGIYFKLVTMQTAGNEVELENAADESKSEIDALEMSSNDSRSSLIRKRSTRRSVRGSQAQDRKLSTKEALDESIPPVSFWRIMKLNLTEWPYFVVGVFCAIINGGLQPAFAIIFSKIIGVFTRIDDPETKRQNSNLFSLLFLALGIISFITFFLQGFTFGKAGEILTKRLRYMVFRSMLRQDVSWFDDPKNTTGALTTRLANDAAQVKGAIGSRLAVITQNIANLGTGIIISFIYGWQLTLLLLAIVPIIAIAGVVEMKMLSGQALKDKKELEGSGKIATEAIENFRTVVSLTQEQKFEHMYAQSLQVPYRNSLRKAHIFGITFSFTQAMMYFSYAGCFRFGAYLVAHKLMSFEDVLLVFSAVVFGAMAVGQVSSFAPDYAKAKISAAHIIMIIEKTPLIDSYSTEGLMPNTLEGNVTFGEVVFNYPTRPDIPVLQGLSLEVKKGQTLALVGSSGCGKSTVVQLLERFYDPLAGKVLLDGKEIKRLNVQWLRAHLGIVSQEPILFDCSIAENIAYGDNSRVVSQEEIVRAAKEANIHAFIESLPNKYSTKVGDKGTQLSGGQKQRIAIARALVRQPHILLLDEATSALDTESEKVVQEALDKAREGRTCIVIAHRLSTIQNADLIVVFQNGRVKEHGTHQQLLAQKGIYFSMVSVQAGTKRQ

Row | SMILES | efflux ratio at 3 h, 1 μM (hPgp) | Ki (human O-GlcNAcase; [2]) | Papp at 3 h, 1 μM [1] | Ki (human O-GlcNAcase)
1 | CCNC1=N[C@@H]2[C@@H](O)[C@H](O)[C@@H](CCl)O[C@@H]2S1 [Example 54, (3aR,5S,6S,7R,7aR)-5-(chloromethyl)-2-(ethylamino)-5,6,7,7a-tetrahydro-3aH-pyrano[3,2-d]thiazole-6,7-diol] |  |  |  | 2.3 nM
2 | CN(C)C1=N[C@@H]2[C@@H](O)[C@H](O)[C@@H](C(C)(C)Cl)O[C@@H]2S1 [Example 56, (3aR,5S,6S,7R,7aR)-5-(2-chloropropan-2-yl)-2-(dimethylamino)-5,6,7,7a-tetrahydro-3aH-pyrano[3,2-d]thiazole-6,7-diol] |  | 207 nM |  | 
3 | C#C[C@H]1O[C@@H]2SC(NCC)=N[C@@H]2[C@@H](O)[C@@H]1O [Example 57, (3aR,5R,6S,7R,7aR)-2-(ethylamino)-5-ethynyl-5,6,7,7-tetrahydro-3aH-pyrano[3,2-d]thiazole-6,7-diol] |  | 837 nM |  | 
4 | CCNC1=N[C@@H]2[C@@H](O)[C@H](O)[C@@H](C#N)O[C@@H]2S1 [Example 58, (3aR,5R,6S,7R,7aR)-2-(ethylamino)-6,7-dihydroxy-5,6,7,7a-tetrahydro-3aH-pyrano[3,2-d]thiazole-5-carbonitrile] |  | 601 nM |  | 
5 | CNC1=N[C@@H]2[C@@H](O)[C@H](O)[C@@H](CS(=O)(=O)Cc3ccccc3)O[C@@H]2S1 [Example 62, (3aR,5S,6S,7R,7aR)-5-((benzylsulfonyl)methyl)-2-(methylamino)-5,6,7,7a-tetrahydro-3aH-pyrano[3,2-d]thiazole-6,7-diol] | 1.1 | 352 nM | 1.3 ×10⁻⁶ cm/s | 

Second part, led by results:

Row | efflux ratio at 3 h, 1 μM (hPgp) | Ki (human O-GlcNAcase; [2]) | Papp at 3 h, 1 μM [1] | SMILES | Ki (human O-GlcNAcase)
6 | 3.4 | 11.1 nM | 25 ×10⁻⁶ cm/s | CNC1=N[C@@H]2[C@@H](O)[C@H](O)[C@@H](CCCc3ccc(OC)cc3)O[C@@H]2S1 [Example 34, (3aR,5R,6S,7R,7aR)-5-[3-(4-methoxyphenyl)propyl]-2-(methylamino)-5,6,7,7a-tetrahydro-3aH-pyrano[3,2-d][1,3]thiazole-6,7-diol] | 
7 |  | 9.3 nM |  | CCNCC[C@H]1O[C@@H]2SC(NC)=N[C@@H]2[C@@H](O)[C@@H]1O [Example 55, (3aR,5R,6S,7R,7aR)-5-(2-(ethylamino)ethyl)-2-(methylamino)-5,6,7,7a-tetrahydro-3aH-pyrano[3,2-d]thiazole-6,7-diol] | 
8 |  | 1.9 nM |  | CNC1=N[C@@H]2[C@@H](O)[C@H](O)[C@@H](CSc3ccccc3)O[C@@H]2S1 [Example 59, (3aR,5 S,6S,7R,7aR)-2-(methylamino)-5-((phenylthio)methyl)-5,6,7,7a-tetrahydro-3aH-pyrano[3,2-d]thiazole-6,7-diol] | 
9 |  | 75 nM |  | CNC1=N[C@@H]2[C@@H](O)[C@H](O)[C@@H](CS(=O)(=O)c3ccccc3)O[C@@H]2S1 [Example 60, (3aR,5 S,6S,7R,7aR)-2-(methylamino)-5-((phenylsulfonyl)methyl)-5,6,7,7a-tetrahydro-3 aH-pyrano[3,2-d]thiazole-6,7-diol] | 
10 |  | 4.1 nM |  | CNC1=N[C@@H]2[C@@H](O)[C@H](O)[C@@H](CSCc3ccccc3)O[C@@H]2S1 [Example 61, (3aR,5S,6S,7R,7aR)-5-((benzylthio)methyl)-2-(methylamino)-5,6,7,7a-tetrahydro-3aH-pyrano[3,2-d]thiazole-6,7-diol] | 
